Several values for one entry are separate records, joined by “and”; a condition that tells them apart may be missing. Equal values may be shown once.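 Five compound concentrations were applied to cells in 96-well plates for 48 hours; endpoints were derived by simple linear interpolation of the resulting dose-response curve. GI50 is the concentration that inhibits growth by half. TGI marks complete inhibition of growth.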
Experiments:
Experiment in all cases: NCI tumour cell line growth inhibition, 48 h
DLD-1 colon = system: DLD-1 colon
HOP-18 NSCLC = system: HOP-18 NSCLC
KM20L2 colon = system: KM20L2 colon
LXFL 529 NSCLC = system: LXFL 529 NSCLC
M19-MEL melanoma = system: M19-MEL melanoma
P388 leukemia = system: P388 leukemia
P388/ADR leukemia = system: P388/ADR leukemia
SN12K1 renal = system: SN12K1 renal
SNB-78 CNS = system: SNB-78 CNS
XF 498 CNS = system: XF 498 CNS
RXF-631 renal = system: RXF-631 renal
MDA-N = system: MDA-N

Row | SMILES | TGI (DLD-1 colon) | TGI (HOP-18 NSCLC) | TGI (KM20L2 colon) | TGI (LXFL 529 NSCLC) | TGI (M19-MEL melanoma) | TGI (P388 leukemia) | TGI (P388/ADR leukemia) | TGI (SN12K1 renal) | TGI (SNB-78 CNS) | TGI (XF 498 CNS) | TGI (RXF-631 renal) | TGI (MDA-N) | GI50 (MDA-N)
1 | Cn1sc2ccccc2c1=S | 10.1 µM | 28.4 µM | 28.8 µM | 27.1 µM | 16.2 µM | 1.67 µM | 2.86 µM | 7.41 µM | 31 µM | 25.1 µM |  |  | 
2 | COc1ccccc1NC(=O)C(CC(C(=O)Nc1ccccc1OC)/C(C)=N/NC(=O)c1ccccc1O)/C(C)=N/NC(=O)c1ccccc1O (configuration not stated) | > 100 µM |  | > 100 µM | > 100 µM | > 100 µM |  |  |  | > 100 µM | > 100 µM | > 100 µM |  | 
3 | COC(=O)C1=C(C)N(NC(N)=O)C(C)(O)C12CCOC2=O (configuration not stated) | > 100 µM | > 100 µM | > 100 µM | > 100 µM | > 100 µM |  |  |  | > 100 µM | > 100 µM |  |  | 
4 | FC(F)(F)c1cccc(C2SCc3nc4ccccc4n32)c1 (configuration not stated) | > 100 µM |  |  | > 100 µM | > 100 µM |  |  |  | > 100 µM |  |  |  | 
5 | COc1ccc(C2C3=C(COC3=O)Oc3cc4c(cc32)OCO4)cc1 (configuration not stated) | > 100 µM | 89.5 µM | 38.9 µM |  | > 100 µM |  |  |  | > 100 µM | > 100 µM |  |  | 
6 | CCCCCCCCCCCCC(CCCCCCCCCCCC)OP(=O)(O)O | > 100 µM | > 100 µM | > 100 µM | > 100 µM | > 100 µM |  |  |  | > 100 µM | > 100 µM | > 100 µM |  | 
7 | O=C(O)[C@@H](NS(=O)(=O)c1ccc([N+](=O)[O-])cc1)c1ccccc1 | > 100 µM | > 100 µM | > 100 µM | > 100 µM | > 100 µM |  |  |  |  | > 100 µM | > 100 µM |  | 
8 | O=C(O)CCSC(=S)Nc1ccc([N+](=O)[O-])cc1 |  |  | > 100 µM | > 100 µM |  |  |  |  | > 100 µM |  |  | 58.4 µM | 
9 | CCOC(=O)C(C(=O)OCC)=c1sc(=C(C(=O)OCC)C(=O)OCC)s1 | > 100 µM |  | > 100 µM | > 100 µM | > 100 µM |  |  |  | > 100 µM |  |  |  | 
10 | COC1=C(OC)[C@]2(OC)c3c(O)c(OC)c4c(c3O[C@@]23O[C@@H](c2ccccc2)CC=C3C1=O)[C@@H](O)C[C@H](c1ccccc1)O4 |  |  |  |  |  |  |  |  |  |  |  | 0.424 µM | 0.196 µM
11 | CCCN1C(=O)CNC(=O)c2[nH]cnc21 | > 100 µM | > 100 µM | > 100 µM | > 100 µM | > 100 µM |  |  |  | > 100 µM | > 100 µM |  |  | 
12 | CCCCCC/C=C1\CCC(CN(C)C)C1=O (configuration not stated) | 6.18 µM | 28.8 µM | 23.3 µM | 3.8 µM | 7.25 µM |  |  | 4.35 µM |  | 7.49 µM |  | 17.1 µM | 
13 | COc1cc(Nc2nc3cc(C(F)(F)F)ccc3nc2C)cc(OC)c1OC |  |  |  | 21.7 µM |  |  |  |  | 25.9 µM | 8.77 µM |  |  | 
14 | C=C[C@H]1C=Cc2c(OC)cccc2[C@@H]1COP1(=S)NC(C)C(c2ccccc2)O1 (some centres not stated) | > 100 µM | > 100 µM | > 100 µM | > 100 µM | > 100 µM |  |  |  | > 100 µM | > 100 µM |  |  | 
15 | N#CSc1ccc(S(N)(=O)=O)cc1 |  |  |  |  |  |  |  |  |  |  |  | > 100 µM | 
16 | c1ccc2c(CNCCCCCCCCCCCCNCc3cccc4ccccc34)cccc2c1 | 3.31 µM | 9.56 µM | 3.37 µM | 3.23 µM | 3.22 µM |  |  |  | 3.41 µM | 3.11 µM |  |  | 
17 | CCCCCCNCCCNc1c2ccccc2nc2cccc([N+](=O)[O-])c12 |  |  |  |  |  |  |  |  |  |  |  | 0.0252 µM and 0.103 µM | 
18 | Cc1ccc(N2C(=O)C(Cl)=C(Cl)C2=O)cc1 | 40.7 µM | 36.3 µM | 53.6 µM | 38.5 µM | 41.9 µM |  |  |  | 54.9 µM |  | 42.2 µM |  | 
19 | Cc1cc(N(CCOS(C)(=O)=O)CCOS(C)(=O)=O)ccc1C=Nc1ccc(-c2csc(-c3ccc(Br)cc3)n2)cc1 |  |  |  |  |  |  |  |  |  |  |  | 56.6 µM | 
20 | O=NN(CCCl)C(=O)N[C@H]1CCCC[C@@H]1Cl | > 100 µM | > 100 µM | > 100 µM | > 100 µM | > 100 µM |  |  |  |  | > 100 µM |  |  | 
21 | COC(=O)[C@@]12C=CC(=O)[C@H]3C[C@@H](C(C(C)C)C1)[C@]32OC (some centres not stated) | > 100 µM | > 100 µM | > 100 µM | > 100 µM | > 100 µM |  |  |  | > 100 µM | > 100 µM | > 100 µM |  | 
22 | O=S(=O)(CCCCl)SCCCCl |  |  |  |  |  |  |  |  |  |  |  | > 76.2 µM | 
23 | O=C(C=Nc1ccccc1C(=O)[O-])c1cccs1.O=C(C=Nc1ccccc1C(=O)[O-])c1cccs1.[Zn+2] | > 100 µM | > 100 µM | > 100 µM |  |  |  |  |  |  |  |  |  | 
24 | CCCCCCCCCCCCCCCCCC[N+](C)(C)Cc1ccc(C[N+](C)(C)CCCCCCCCCCCCCCCCCC)cc1 | 57.3 µM | 34.8 µM | 92.7 µM | 12.8 µM | 59.8 µM |  |  |  | 47.1 µM |  | 57.1 µM |  | 
